Measured values: ChEMBL document CHEMBL1201862, “PubChem BioAssay data set” (2004)
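Test compounds were applied to cells in 96-well plates for 48 hours at 5 doses. GI50: concentration for 50% inhibition of growth.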 Activity calls are given as the source filed them. No stated cut-off is given here; in the data, active = GI50 up to about 1.1 µM and inactive = higher.

Key:
Assay in all cases: growth of human tumour cells (NCI), 48 h
SF-539 = test system: SF-539
TK-10 = test system: TK-10
UACC-257 = test system: UACC-257
K562 = test system: K562
SW-620 = test system: SW-620
NCI/ADR-RES = test system: NCI/ADR-RES
HCC 2998 = test system: HCC 2998
HCT-116 = test system: HCT-116
BT-549 = test system: BT-549
COLO 205 = test system: COLO 205
PC-3 = test system: PC-3
LOX IMVI = test system: LOX IMVI
A549 = test system: A549
SF-268 = test system: SF-268
HL-60 = test system: HL-60
OVCAR-5 = test system: OVCAR-5
Hs-578T = test system: Hs-578T
NCI-H23 = test system: NCI-H23
NCI-H522 = test system: NCI-H522

Measured: GI50

O=[N+]([O-])c1cc(Cl)ccc1S(=O)(=O)N1CCCc2cc(Cl)ccc21
inactive: SF-539 93.1 µM | TK-10 > 100 µM | UACC-257 7.08 µM | K562 9.48 µM | SW-620 > 100 µM | NCI/ADR-RES 25.5 µM | HCC 2998 > 100 µM | HCT-116 28.6 µM | BT-549 31.9 µM | COLO 205 51.8 µM | PC-3 55 µM | LOX IMVI 34.8 µM | A549 43.1 µM | SF-268 > 100 µM | HL-60 > 10 µM | OVCAR-5 > 100 µM | Hs-578T > 100 µM

C=CCc1ccccc1C1CC2(C(=O)OC)OC1C(C(=O)OC)=C2C(=O)OC (stereo unspecified)
inactive: SF-539 > 10 µM | TK-10 > 10 µM | UACC-257 > 10 µM | K562 > 10 µM | SW-620 > 10 µM | NCI/ADR-RES > 10 µM | HCC 2998 > 10 µM | HCT-116 > 10 µM | BT-549 > 10 µM | NCI-H23 > 10 µM | COLO 205 > 10 µM | PC-3 > 10 µM | LOX IMVI > 10 µM | A549 > 10 µM | SF-268 > 10 µM | HL-60 > 10 µM | OVCAR-5 > 10 µM | Hs-578T > 10 µM

CCOC(=O)/C=C/C(Br)=C(Br)/C=C/C(=O)OCC
inactive: TK-10 14.2 µM | UACC-257 18.2 µM | NCI-H522 2.12 µM | K562 2.65 µM | NCI/ADR-RES 11.4 µM | HCC 2998 20.6 µM | HCT-116 2.77 µM | BT-549 5.62 µM | NCI-H23 14.5 µM | COLO 205 16.4 µM | PC-3 13.5 µM | LOX IMVI 2.52 µM | A549 22.5 µM | SF-268 18 µM | HL-60 5.85 µM | OVCAR-5 18.6 µM | Hs-578T 29.2 µM

Cc1cc(C)nc(NS(=O)(=O)c2ccc(NC(=O)c3cc([N+](=O)[O-])cc([N+](=O)[O-])c3)cc2)n1
inactive: SF-539 37 µM | TK-10 > 100 µM | UACC-257 16.4 µM | K562 60.7 µM | SW-620 > 100 µM | NCI/ADR-RES > 100 µM | HCT-116 > 100 µM | BT-549 > 100 µM | NCI-H23 > 100 µM | COLO 205 18.3 µM | PC-3 58.7 µM | LOX IMVI 26.8 µM | A549 > 100 µM | SF-268 44.4 µM | HL-60 30.1 µM | Hs-578T > 100 µM

C/C=C(/CBr)CCC(Br)C(C)(C)Cl.C/C=C(\CBr)CCC(Br)C(C)(C)Cl (stereo unspecified)
inactive: SF-539 > 10 µM | TK-10 > 10 µM | UACC-257 > 10 µM | NCI-H522 > 10 µM | K562 > 10 µM | SW-620 > 10 µM | NCI/ADR-RES > 10 µM | HCC 2998 > 10 µM | HCT-116 > 10 µM | BT-549 > 10 µM | NCI-H23 > 10 µM | COLO 205 > 10 µM | PC-3 > 10 µM | A549 > 10 µM | SF-268 > 10 µM | OVCAR-5 > 10 µM | Hs-578T > 10 µM

O/N=C1/Nc2ccccc2C(=S)N2CSCC12 (stereo unspecified)
inactive: TK-10 > 100 µM | UACC-257 > 100 µM | NCI-H522 37 µM | K562 22.8 µM | SW-620 35.6 µM | NCI/ADR-RES > 100 µM | HCC 2998 32.4 µM | HCT-116 43.6 µM | BT-549 > 100 µM | COLO 205 41.9 µM | PC-3 73.8 µM | LOX IMVI 62.8 µM | A549 83.2 µM | SF-268 78 µM | OVCAR-5 > 100 µM | Hs-578T > 100 µM

CC1(C)S[C@@H]2[C@H](NC(=O)/C=C/c3ccccc3)C(=O)N2[C@H]1C(=O)O
inactive: SF-539 > 100 µM | TK-10 > 100 µM | UACC-257 > 100 µM | NCI-H522 > 100 µM | SW-620 > 100 µM | NCI/ADR-RES > 100 µM | HCC 2998 > 100 µM | HCT-116 > 100 µM | BT-549 > 100 µM | NCI-H23 > 100 µM | COLO 205 > 100 µM | PC-3 > 100 µM | LOX IMVI > 100 µM | A549 > 100 µM | SF-268 > 100 µM | HL-60 > 100 µM | OVCAR-5 > 100 µM | Hs-578T > 100 µM

CCC[C@@H]1C(=O)N=C(N)N1C(=O)OCc1ccccc1
inactive: TK-10 > 100 µM | UACC-257 > 100 µM | NCI-H522 > 100 µM | K562 > 100 µM | SW-620 > 100 µM | NCI/ADR-RES > 100 µM | HCC 2998 > 100 µM | HCT-116 > 100 µM | BT-549 > 100 µM | NCI-H23 > 100 µM | COLO 205 > 100 µM | PC-3 > 100 µM | LOX IMVI > 100 µM | SF-268 > 100 µM | HL-60 > 100 µM | OVCAR-5 > 100 µM | Hs-578T > 100 µM
